Source: publication PMC11110727, “Exploiting thiol-functionalized benzosiloxaboroles for achieving diverse substitution patterns – synthesis, characterization and biological evaluation of promising antibacterial agents” (RSC Medicinal Chemistry, 2024)
In brackets after ≈: the same amount, converted by molar mass.

How the values were obtained:
E. faecalis ATCC 29212 = assay: Antibacterial activity: MIC/MBC determination and disc-diffusion; assay type: cell-based; conditions: Enterococcus faecalis, ATCC29212, E. faecalis ATCC 29212; for MIC: read-out: MIC
Procedure, shortened: (§1)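 Yeasts are grown twice on Sabouraud dextrose agar and bacteria twice on tryptic soy agar (30 °C, 24–48 h). MIC and disc-diffusion testing follow EUCAST/CLSI, and fungicidal or bactericidal activity follows CLSI. Compounds are dissolved in DMSO.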

E. faecium ATCC 6057 = assay: as above; assay type: cell-based; conditions: Enterococcus faecium, ATCC6057; E. faecium ATCC 6057; read-out: MIC
Procedure, shortened: as §1

[1] = test system: S. aureus ATCC 43300 MRSA; assay: as above; assay type: cell-based; conditions: Staphylococcus aureus, S. aureus ATCC 43300 MRSA; for MBC: read-out: MBC (first MBC where Eagle effect); for MIC: read-out: MIC
Procedure, shortened: as §1

[2] = test system: S. epidermidis ATCC 12228; assay: as above; assay type: cell-based; conditions: Staphylococcus epidermidis, ATCC12228, S. epidermidis ATCC 12228; for MIC: read-out: MIC
Procedure, shortened: as §1

E. coli ATCC 25922 = assay: Antibacterial activity: MIC/MBC, MIC with PAβN, disc-diffusion; assay type: cell-based, Escherichia coli; conditions: E. coli ATCC 25922; for diameter of inhibition zone: (-) = zone not observed, paper discs 9 mm; for MBC / MIC: Escherichia coli, ATCC25922; for MIC: read-out: MIC
Procedure, shortened: (§2)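 MICs were measured by CLSI broth microdilution in Mueller–Hinton II broth, with or without the efflux-pump inhibitor PAβN (20 μg mL^−1) and with 1 mM MgSO4 present. A reduction of at least 4-fold with PAβN was counted as significant. Disc diffusion followed EUCAST/CLSI, MBC followed CLSI, and compounds were dissolved in DMSO.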

P. mirabilis ATCC 12453 = assay: as above; assay type: cell-based, Proteus mirabilis; conditions: P. mirabilis ATCC 12453; for diameter of inhibition zone: (-) = zone not observed, paper discs 9 mm; for -fold reduction of MIC in the presence of PAβN: PAβN 20 μg mL^−1, MHB + 1 mM MgSO4; for MIC: Proteus mirabilis, ATCC12453, read-out: MIC
Procedure, shortened: as §2

S. marcescens ATCC 13880 = assay: as above; assay type: cell-based, Serratia marcescens; conditions: S. marcescens ATCC 13880; for diameter of inhibition zone: (-) = zone not observed, paper discs 9 mm; for -fold reduction of MIC in the presence of PAβN: PAβN 20 μg mL^−1, MHB + 1 mM MgSO4; for MIC: Serratia marcescens, ATCC13880, read-out: MIC
Procedure, shortened: as §2

A. baumannii ATCC 19606 = assay: as above; assay type: cell-based, Acinetobacter baumannii; conditions: A. baumannii ATCC 19606; for diameter of inhibition zone: (-) = zone not observed, paper discs 9 mm; for MBC / MIC: Acinetobacter baumannii, ATCC19606; for MIC: read-out: MIC
Procedure, shortened: as §2

[3] = test system: B. bronchiseptica ATCC 4617; assay: Antibacterial activity: MIC/MBC, disc-diffusion; assay type: cell-based, Bordetella bronchiseptica; conditions: B. bronchiseptica ATCC 4617; for diameter of inhibition zone: (-) = zone not observed, paper discs 9 mm; for MBC / MIC: Bordetella bronchiseptica, ATCC4617; for MIC: read-out: MIC
Procedure, shortened: as §2

C. krusei ATCC 6258 = assay: Antifungal activity: MIC/MFC, disc-diffusion; assay type: cell-based; conditions: for MIC: read-out: MIC; for diameter of inhibition zone: (-) = zone not observed, paper discs 9 mm
Procedure, shortened: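 Compounds in DMSO were tested by disc diffusion and MIC determination following EUCAST/CLSI guidance, with fungicidal concentration (MFC) per CLSI. Strain first grown twice-checked on Sabouraud dextrose agar, 30 °C, 24–48 h.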

[4] = PAβN 20 μg mL^−1, MHB + 1 mM MgSO4

| SMILES | MIC (E. faecalis ATCC 29212) [µg/mL] | MIC (E. faecium ATCC 6057) [µg/mL] | MBC [1] [µg/mL] | MIC [1] [µg/mL] | MBC [2] [µg/mL] | MIC [2] [µg/mL] | MIC (E. coli ATCC 25922) [µg/mL] | MIC (P. mirabilis ATCC 12453) [µg/mL] | MIC (S. marcescens ATCC 13880) [µg/mL] | MIC (A. baumannii ATCC 19606) [µg/mL] | diameter of inhibition zone [3] [mm] | MIC [3] [µg/mL] | MIC (C. krusei ATCC 6258; Pichia kudriavzevii, ATCC6258) [µg/mL] | diameter of inhibition zone (C. krusei ATCC 6258; C. krusei ATCC 6258) [mm] | MBC (E. faecalis ATCC 29212) [µg/mL] | further results |
| --- | --- | --- | --- | --- | --- | --- | --- | --- | --- | --- | --- | --- | --- | --- | --- | --- |
| C[Si]1(C)OB(O)c2cc(F)c(SC3CC(=O)NC3=O)c(F)c21 (stereo not shown) [Compound 12, 3-((5,7-Difluoro-3-hydroxy-1,1-dimethyl-1,3-dihydrobenzo[c][1,2,5]oxasilaborol-6-yl)thio)pyrrolidine-2,5-dione] | 25 (≈ 72.8 µM) | 12.5 (≈ 36.4 µM) | 200 (≈ 583 µM) | 12.5 (≈ 36.4 µM) | 400 (≈ 1170 µM) | 6.25 (≈ 18.2 µM) | 50 (≈ 146 µM) | > 400 | 200 (≈ 583 µM) | 100 (≈ 291 µM) | 25 | 12.5 (≈ 36.4 µM) | > 400 | – | – | diameter of inhibition zone (E. coli ATCC 25922): 17 mm; MBC (E. coli ATCC 25922): 200 µg/mL (≈ 583 µM); diameter of inhibition zone (P. mirabilis ATCC 12453): 14 mm; -fold reduction of MIC in the presence of PAβN (P. mirabilis ATCC 12453): 4 -fold; diameter of inhibition zone (S. marcescens ATCC 13880): 28 mm; -fold reduction of MIC in the presence of PAβN (S. marcescens ATCC 13880): 2 -fold; diameter of inhibition zone (A. baumannii ATCC 19606): 18 mm; -fold reduction of MIC in the presence of PAβN (A. baumannii ATCC 19606; [4]): 2 -fold; MBC (A. baumannii ATCC 19606): 200 µg/mL (≈ 583 µM); MBC [3]: 50 µg/mL (≈ 146 µM) |
| C[Si]1(C)OB(O)c2ccc(SC3CC(=O)NC3=O)c(F)c21 (stereo not shown) [Compound 13, 3-((7-Fluoro-3-hydroxy-1,1-dimethyl-1,3-dihydrobenzo[c][1,2,5]oxasilaborol-6-yl)thio)pyrrolidine-2,5-dione] | 25 (≈ 76.9 µM) | 12.5 (≈ 38.4 µM) | – | 25 (≈ 76.9 µM) | – | 25 (≈ 76.9 µM) | 25 (≈ 76.9 µM) | 400 (≈ 1230 µM) | 100 (≈ 308 µM) | 50 (≈ 154 µM) | 26 | 12.5 (≈ 38.4 µM) | > 400 | – | – | diameter of inhibition zone (E. coli ATCC 25922): 19 mm; MBC (E. coli ATCC 25922): 50 µg/mL (≈ 154 µM); diameter of inhibition zone (P. mirabilis ATCC 12453): 18 mm; -fold reduction of MIC in the presence of PAβN (P. mirabilis ATCC 12453): 4 -fold; diameter of inhibition zone (S. marcescens ATCC 13880): 29 mm; -fold reduction of MIC in the presence of PAβN (S. marcescens ATCC 13880): 2 -fold; diameter of inhibition zone (A. baumannii ATCC 19606): 20 mm; MBC (A. baumannii ATCC 19606): 100 µg/mL (≈ 308 µM); MBC [3]: 25 µg/mL (≈ 76.9 µM) |
| C[Si]1(C)OB(O)c2cc(F)c(SC3CC(=O)N(c4ccc(F)cc4)C3=O)c(F)c21 (stereo not shown) [Compound 14, 3-((5,7-Difluoro-3-hydroxy-1,1-dimethyl-1,3-dihydrobenzo[c][1,2,5]oxasilaborol-6-yl)thio)-1-(4-fluorophenyl)pyrrolidine-2,5-dione] | 25 (≈ 57.2 µM) | 50 (≈ 114 µM) | – | 50 (≈ 114 µM) | – | 50 (≈ 114 µM) | > 200 | > 200 | > 200 | > 200 | 11 | 200 (≈ 457 µM) | 12.5 (≈ 28.6 µM) | 30 | – | -fold reduction of MIC in the presence of PAβN (E. coli ATCC 25922; [4]): 2 -fold; MFC (C. krusei ATCC 6258; Pichia kudriavzevii, ATCC6258, C. krusei ATCC 6258): 100 µg/mL (≈ 229 µM) |
| C[Si]1(C)OB(O)c2ccc(SC3CC(=O)N(c4ccc(F)cc4)C3=O)c(F)c21 (stereo not shown) [Compound 15, 3-((7-Fluoro-3-hydroxy-1,1-dimethyl-1,3-dihydrobenzo[c][1,2,5]oxasilaborol-6-yl)thio)-1-(4-fluorophenyl)pyrrolidine-2,5-dione] | 12.5 (≈ 29.8 µM) | 25 (≈ 59.6 µM) | – | 25 (≈ 59.6 µM) | – | 12.5 (≈ 29.8 µM) | > 200 | > 200 | > 200 | > 200 | – | > 200 | 25 (≈ 59.6 µM) | 29 | – | – |
| C[Si]1(C)OB(O)c2cc(F)c(SC3CC(=O)N(c4ccc(Br)c(C(F)(F)F)c4)C3=O)c(F)c21 (stereo not shown) [Compound 16, 1-(4-Bromo-3-(trifluoromethyl)phenyl)-3-((5,7-difluoro-3-hydroxy-1,1-dimethyl-1,3-dihydrobenzo[c][1,2,5]oxasilaborol-6-yl)thio)pyrrolidine-2,5-dione] | 25 (≈ 44.2 µM) | 50 (≈ 88.3 µM) | 100 (≈ 177 µM) | 50 (≈ 88.3 µM) | 100 (≈ 177 µM) | 50 (≈ 88.3 µM) | > 200 | > 200 | > 200 | > 200 | – | 200 (≈ 353 µM) | 25 (≈ 44.2 µM) | 21 | 200 (≈ 353 µM) | – |
| C[Si]1(C)OB(O)c2ccc(SC3CC(=O)N(c4ccc(Br)c(C(F)(F)F)c4)C3=O)c(F)c21 (stereo not shown) [Compound 17, 1-(4-Bromo-3-(trifluoromethyl)phenyl)-3-((7-fluoro-3-hydroxy-1,1-dimethyl-1,3-dihydrobenzo[c][1,2,5]oxasilaborol-6-yl)thio)pyrrolidine-2,5-dione] | 12.5 (≈ 22.8 µM) | 25 (≈ 45.6 µM) | 100 (≈ 182 µM) | 25 (≈ 45.6 µM) | 100 (≈ 182 µM) | 12.5 (≈ 22.8 µM) | > 200 | > 200 | > 200 | > 200 | – | 200 (≈ 365 µM) | 100 (≈ 182 µM) | 18 | 200 (≈ 365 µM) | – |
| C[Si]1(C)OB(O)c2cc(F)c(SCCC(=O)OCCCCCC[n+]3ccccc3)c(F)c21 [Compound 18, 1-(6-((3-((5,7-difluoro-3-hydroxy-1,1-dimethyl-1,3-dihydrobenzo[c][1,2,5]oxasilaborol-6-yl)thio)propanoyl)oxy)hexyl)pyridin-1-ium trifluoromethanesulfonate] | 200 | 100 | 200 | 50 | 200 | 50 | > 400 | > 400 | > 400 | > 400 | – | > 400 | > 400 | – | – | – |
| C[Si]1(C)OB(O)c2ccc(SCCC(=O)OCCCCCC[n+]3ccccc3)c(F)c21 [Compound 19, 1-(6-((3-((7-Fluoro-3-hydroxy-1,1-dimethyl-1,3-dihydrobenzo[c][1,2,5]oxasilaborol-6-yl)thio)propanoyl)oxy)hexyl)pyridin-1-ium trifluoromethanesulfonate] | 100 | 100 | 100 | 25 | 100 | 25 | > 400 | > 400 | > 400 | > 400 | – | > 400 | > 400 | – | 400 | – |
